Here are results for 3 molecules from patent US4683227A, “Antibiotic derivatives of 7β-[2-(thiazol-4-yl)acetamide]-3-chloro-3-cephem-4-carboxylic acids and compositions and method of use thereof” (Eli Lilly and Company, priority 1985, dated 1987).

Data set [1] can be described thus: Peroral bioavailability in mice (oral vs subcutaneous dosage). Conditions: 20 mg/kg. It counts as in vivo, mice (Cox Male Standard Mice, Lai:COX (Standard) BR). The text has this: Cox Male Standard Mice, Lai:COX (Standard) BR were housed overnight in a wire-bottom cage with free access to water and liquid diet. The result was a gastro-intestinal tract free of solids, yet without the nutritional shock and coprophagy that often accompanies overnight starvation of rodents. After dosing, the mice were housed individually in ventilated wide-mouth jars containing a layer of buffer beneath an elevated wire screen floor. At intervals after dosing, mice were removed from the jars and heparinized blood, stomach, and small intestine were removed from the animals. The urinary bladder was removed and combined with the urine collected in the buffer in the bottom of the jars. Urine, washings from the stomach and small intestine, and plasma prepared from blood samples were assayed for antibiotic activity. The test procedure used is a modification of the test procedure described by W. E. Wright, et al., J. Antibiotics, 32:1155 (1979).
Dose solutions were prepared in saline at 2 mg/ml for subcutaneous or oral administration. In all cases the compounds were administered to the mice at 20 mg/kg on an equal weight basis.
The biological activity of the samples was determined by a conventional agar well procedure using Bacillus subtilis ATCC 6633 as the test organism.
Peroral bioavailability (BA) of the test compounds in mice can be determined either by comparison of the area under the plasma curves (AUC) after oral or subcutaneous dosage, or by comparison of the urinary excretion of the dose after oral and subcutaneous dosage. Calculations of BA by either method are made with the following formulae: [formula]

Data set [2] in a line: Oral bioavailability in dogs. It counts as in vivo. Particulars: female mongrel dogs; oral; calculated with the above-described formulae.
Data set [3] concerns Streptococcus pyogenes C203. The data set can be described thus: Minimum inhibitory concentration, standard agar dilution method. It counts as cell-based. The source says:
(§1) The method of this invention is useful in treating infections caused by a variety of microorganisms pathogenic to man and animals. […] The concentrations were obtained by the standard agar dilution method.

In data set [4] the test system is Staphylococcus aureus S13E. The description is as above. It counts as cell-based. Particulars: Staphylococcus aureus, S13E, read-out: Minimum Inhibitory Concentration.
Description: as §1

The subject of data set [5] is Escherichia coli N10. The data set is described as above. It counts as cell-based.
Description: as §1

The test system of data set [6] is Klebsiella pneumoniae KAE. The data set is described as above. It counts as cell-based. Particulars: Klebsiella pneumoniae KAE; agar dilution; read-out: Minimum Inhibitory Concentration.
Description: as §1

Data set [7] deals with Staphylococcus aureus V41. The description is as above. Particulars: Staphylococcus aureus V41; agar dilution; read-out: Minimum Inhibitory Concentration. It counts as cell-based.
Description: as §1

For data set [8], the system named is Staphylococcus aureus X1.1. The description is as above. It counts as cell-based.
Description: as §1

In data set [9] the test system is Haemophilus influenzae C.L. Described as above. It counts as cell-based.
Description: as §1

Data set [10] has as its system Staphylococcus epidermidis Epil. Described as above. It counts as cell-based.
Description: as §1

In data set [11] the test system is Streptococcus sp. group D 2041. The description is as above. It counts as cell-based. Particulars: Streptococcus sp. group D 2041; agar dilution; read-out: Minimum Inhibitory Concentration.
Description: as §1

For data set [12], the system named is Streptococcus pneumoniae PARK I. Described as above. It counts as cell-based.
Description: as §1

Data set [13] concerns Escherichia coli TEM. The description is as above. It counts as cell-based.
Description: as §1

The subject of data set [14] is Escherichia coli EC14. Described as above. It counts as cell-based.
Description: as §1

Data set [15] deals with Streptococcus sp. group D X66. Described as above. It counts as cell-based. Particulars: Streptococcus sp. group D X66; agar dilution; read-out: Minimum Inhibitory Concentration.
Description: as §1

Data set [16] concerns Staphylococcus epidermidis 222. The description is as above. It counts as cell-based.
Description: as §1

The test system of data set [17] is Klebsiella pneumoniae X68. The description is as above. It counts as cell-based.
Description: as §1

Data set [18] concerns Haemophilus influenzae 76. The data set is described as above. It counts as cell-based.
Description: as §1

Data set [19] has as its system Staphylococcus aureus X400. The data set is described as above. Particulars: Staphylococcus aureus X400; agar dilution; read-out: Minimum Inhibitory Concentration. It counts as cell-based.
Description: as §1

In data set [20] the test system is Klebsiella pneumoniae X26. The data set is described as above. It counts as cell-based.
Description: as §1

For data set [21] the following is noted: in vivo, po; cited from earlier work.

Structures are written as SMILES. Converted amounts (≈) assume the structure as drawn.

With `Nc1nc(CC(=O)N[C@@H]2C(=O)N3C(C(=O)O)=C(Cl)CS[C@H]23)cs1` [Compound 2, 7β-[2-(2-Aminothiazol-4-yl)acetamido]-3-chloro-3-cephem-4-carboxylic acid], the “Oral Bioavailability % BA (AUC)” value in data set [1] (area under plasma curves after oral vs subcutaneous dosage) is on record as 62%. In addition, the “Oral Bioavailability % BA (URINE)” value in data set [1] (urinary excretion after oral vs subcutaneous dosage) is reported as 64%. In addition, the bioavailability in [2] was 28%. Moreover, the MIC in data set [3] is 0.06 µg/mL (≈ 0.16 µM); in data set [4] it was 32 µg/mL (≈ 85.4 µM); in data set [5] it was 4 µg/mL (≈ 10.7 µM); in data set [6] it was 16 µg/mL (≈ 42.7 µM); in data set [7], 32 µg/mL (≈ 85.4 µM); in [8], 1 µg/mL (≈ 2.67 µM). The MIC in data set [9] stood at 0.5 µg/mL (≈ 1.33 µM); in [10], 4 µg/mL (≈ 10.7 µM); in [11], 32 µg/mL (≈ 85.4 µM); in data set [12], 0.5 µg/mL (≈ 1.33 µM); in data set [13], 2 µg/mL (≈ 5.34 µM); in [14], 1 µg/mL (≈ 2.67 µM). The MIC in data set [15] was greater than 128 µg/mL; in data set [16], 1 µg/mL (≈ 2.67 µM); in data set [17] it was 0.5 µg/mL (≈ 1.33 µM); in data set [18], 0.5 µg/mL (≈ 1.33 µM); in [19] it was greater than 128 µg/mL; in data set [20] it was 0.25 µg/mL (≈ 0.667 µM).
As for `N[C@@H](C(=O)N[C@@H]1C(=O)N2C(C(=O)O)=C(Cl)CS[C@H]12)c1ccccc1` [cefaclor], the “absorption from the gastrointestinal tract” value in data set [21] is “high absorption”.
`CC1=C(C(=O)O)N2C(=O)[C@@H](NC(=O)[C@H](N)C3=CCC=CC3)[C@H]2SC1` [cephradine]: in data set [21], the “absorption from the gastrointestinal tract” value was “high absorption”.
